Laboratory results taken from US20180118708A1, “CYCLIC COMPOUND” (Takeda Pharmaceutical Company Limited, priority 2015, published 2018).

Target: T1, TLR4 (Mus musculus, UniProt Q9QUK6)
T1 construct: endogenous in cells; host or cells: RAW264.7 (murine macrophage cell line)
T1 sequence (Q9QUK6 26-835): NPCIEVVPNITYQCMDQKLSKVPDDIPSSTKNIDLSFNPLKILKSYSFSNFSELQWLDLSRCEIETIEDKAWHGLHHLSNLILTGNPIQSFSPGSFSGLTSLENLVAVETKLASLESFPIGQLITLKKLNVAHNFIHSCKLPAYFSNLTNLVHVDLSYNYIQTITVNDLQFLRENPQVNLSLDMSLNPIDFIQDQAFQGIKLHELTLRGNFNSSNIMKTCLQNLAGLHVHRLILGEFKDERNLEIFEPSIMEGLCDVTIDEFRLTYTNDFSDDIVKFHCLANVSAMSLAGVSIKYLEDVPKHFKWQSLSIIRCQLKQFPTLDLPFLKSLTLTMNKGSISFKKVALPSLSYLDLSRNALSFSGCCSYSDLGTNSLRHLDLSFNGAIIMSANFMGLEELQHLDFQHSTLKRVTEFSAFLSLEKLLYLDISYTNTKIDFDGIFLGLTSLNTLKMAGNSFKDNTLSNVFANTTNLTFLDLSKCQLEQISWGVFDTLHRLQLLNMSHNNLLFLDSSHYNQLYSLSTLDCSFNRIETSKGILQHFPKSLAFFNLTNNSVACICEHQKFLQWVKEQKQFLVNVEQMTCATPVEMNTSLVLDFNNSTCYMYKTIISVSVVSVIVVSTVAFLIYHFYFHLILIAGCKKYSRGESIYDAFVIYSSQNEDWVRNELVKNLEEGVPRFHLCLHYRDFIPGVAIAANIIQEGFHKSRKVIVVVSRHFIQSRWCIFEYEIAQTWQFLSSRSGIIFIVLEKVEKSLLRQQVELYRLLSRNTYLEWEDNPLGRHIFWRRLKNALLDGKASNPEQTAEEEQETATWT
T1 sequence (Q9JHF9 19-160 partner): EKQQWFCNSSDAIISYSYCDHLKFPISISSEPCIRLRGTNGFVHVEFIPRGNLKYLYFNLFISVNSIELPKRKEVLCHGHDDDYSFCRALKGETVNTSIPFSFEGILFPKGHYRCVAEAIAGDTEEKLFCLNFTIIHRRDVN
Experiment: Inhibitory effect with respect to NO production (LPS/interferon γ stimulated RAW264.7 cells)
Assay type: cell-based, murine
Conditions: test compound 100 nM, LPS 1.25 ng/mL + mouse interferon γ 0.2 ng/mL, nitrite ion in culture supernatant
Experimental: Inhibitory Effect With Respect to NO Production
The inhibitory effect on TLR4 was determined using the inhibition rate due to the test compound with respect to NO production as a result of addition of lipopolysaccharide (LPS) using murine macrophage cell line RAW264.7. The cells were adjusted to 2×10^6 cells/mL using RPM1-1640 culture medium (phenol red free) supplemented with 10% inactivated bovine fetal serum, and were plated on 384 well plate so as to contain 6×10^4 cells/30 μL per well. Thereafter the cells were cultured at 37° C. overnight under 5% CO2/95% air. The test compound dissolved in DMSO was diluted 200 times using RPM1-1640 culture medium and adjusted so as to form a compound concentration of 500 nM. The prepared test compound 10 μL (final concentration 100 nM) was added to the cells, and LPS (Sigma) and mouse interferon γ (Wako Pure Chemicals) were added in amounts of 10 μL so as to form final concentrations of 1.25 ng/mL and 0.2 ng/mL respectively. The cells were further cultured overnight, and then the nitrite ion (stable NO metabolite) concentration in the culture supernatant was measured as an index of NO production. The nitrite ion concentration was assayed by adding 10 μL of 20 μg/mL 2,3-diamino naphthalene (DAN) dissolved in 0.2N HCl to 20 μL culture supernatant, incubating at room temperature for ten minutes, and then adding 10 μL of 0.5N NaOH, and measuring the fluorescent value at 460 nm (excitation wavelength 355 nm) using an EnVision plate reader (Perkin Elmer). The NO production inhibition rate (%) was calculated using the value without the addition of stimulating agent as control of 100% inhibition, and the value without the addition of the compound as control of 0% inhibition.

Compound | NO production inhibitory effect at 100 nM (% inhibition) (0.1 µM) | NO production inhibitory effect at 100 nM (% inhibition)
CCOC(=O)C1=CC2(CCC1S(=O)(=O)Cc1ccc(F)cc1Cl)O[C@@H](CO)[C@H](CO)O2 (single isomer, unassigned) [Compound 6] | 92 % inhibition | –
CCOC(=O)C1=CC2(CCC1S(=O)(=O)Cc1ccc(F)cc1Cl)O[C@H](CO)[C@@H](CO)O2 (single isomer, unassigned) [Compound 15] | 75 % inhibition | –
CCOC(=O)C1=CC2(CCC1S(=O)(=O)C(C)c1ccc(F)cc1Cl)O[C@H](CO)[C@@H](CO)O2 (single isomer, unassigned) [Compound 19] | 110 % inhibition | –
CCOC(=O)C1=CC2(CCC1S(=O)(=O)C(C)c1ccc(F)cc1Cl)O[C@H](CO)[C@@H](CO)O2 (single isomer, unassigned) [Compound 20] | 77 % inhibition | –
CCOC(=O)C1=CC2(CCC1S(=O)(=O)Cc1cc(Cl)ccc1F)O[C@H](CO)[C@@H](CO)O2 (stereo partly drawn) [Compound 4, ethyl (2R,3R)-8-((5-chloro-2-fluorobenzyl)sulfonyl)-2,3-bis(hydroxymethyl)-1,4-dioxaspiro[4.5]dec-6-ene-7-carboxylate] | – | 100 % inhibition
CCOC(=O)C1=CC2(CCC1S(=O)(=O)Cc1ccc(F)c(Cl)c1)O[C@H](CO)[C@@H](CO)O2 (stereo partly drawn) [Compound 5, ethyl (2R,3R)-8-((3-chloro-4-fluorobenzyl)sulfonyl)-2,3-bis(hydroxymethyl)-1,4-dioxaspiro[4.5]dec-6-ene-7-carboxylate] | – | 100 % inhibition
CCOC(=O)C1=CC2(CCC1S(=O)(=O)Cc1ccc(F)cc1Cl)OC[C@@H](CO)O2 (stereo partly drawn) [Compound 8, ethyl (2R)-8-((2-chloro-4-fluorobenzyl)sulfonyl)-2-(hydroxymethyl)-1,4-dioxaspiro[4.5]dec-6-ene-7-carboxylate] | 100 % inhibition | –
CCOC(=O)C1=CC2(CCC1S(=O)(=O)Cc1ccc(F)cc1Cl)OC[C@@H](CO)O2 (stereo partly drawn) [Compound 9, ethyl (2R)-8-((2-chloro-4-fluorobenzyl)sulfonyl)-2-(hydroxymethyl)-1,4-dioxaspiro[4.5]dec-6-ene-7-carboxylate] | 110 % inhibition | –
CCOC(=O)C1=CC2(CCC1S(=O)(=O)Cc1ccc(F)cc1Cl)O[C@H](COC(C)=O)[C@@H](COC(C)=O)O2 (stereo partly drawn) [Compound 10, ethyl (2R,3R)-2,3-bis(acetoxymethyl)-8-((2-chloro-4-fluorobenzyl)sulfonyl)-1,4-dioxaspiro[4.5]dec-6-ene-7-carboxylate] | – | 110 % inhibition
CCOC(=O)C1=CC2(CCC1S(=O)(=O)Cc1ccc(F)cc1Cl)O[C@H](COC)[C@@H](COC)O2 (stereo partly drawn) [Compound 11, ethyl (2R,3R)-8-((2-chloro-4-fluorobenzyl)sulfonyl)-2,3-bis(methoxymethyl)-1,4-dioxaspiro[4.5]dec-6-ene-7-carboxylate] | – | 110 % inhibition
CCOC(=O)C1=CC2(CCC1S(=O)(=O)Cc1cccc(C)c1)O[C@H](CO)[C@@H](CO)O2 (stereo partly drawn) [Compound 12, ethyl (2R,3R)-2,3-bis(hydroxymethyl)-8-((3-methylbenzyl)sulfonyl)-1,4-dioxaspiro[4.5]dec-6-ene-7-carboxylate] | – | 100 % inhibition
CCOC(=O)C1=CC2(CCC1S(=O)(=O)Cc1cccc(OC)c1)O[C@H](CO)[C@@H](CO)O2 (stereo partly drawn) [Compound 13, ethyl (2R,3R)-2,3-bis(hydroxymethyl)-8-((3-methoxybenzyl)sulfonyl)-1,4-dioxaspiro[4.5]dec-6-ene-7-carboxylate] | – | 100 % inhibition
CCOC(=O)C1=CC2(CCC1S(=O)(=O)Cc1ccc(F)cc1Cl)O[C@H](COC(=O)CN)[C@@H](COC(=O)CN)O2 (stereo partly drawn) [Compound 16, ethyl (2R,3R)-2,3-bis((2-aminoacetoxy)methyl)-8-((2-chloro-4-fluorobenzyl)sulfonyl)-1,4-dioxaspiro[4.5]dec-6-ene-7-carboxylate] | – | 100 % inhibition
CCOC(=O)C1=CC2(CCC1S(=O)(=O)Cc1ccc(F)cc1Br)O[C@H](CO)[C@@H](CO)O2 (stereo partly drawn) [Compound 17, ethyl (2R,3R)-8-((2-bromo-4-fluorobenzyl)sulfonyl)-2,3-bis(hydroxymethyl)-1,4-dioxaspiro[4.5]dec-6-ene-7-carboxylate] | – | 100 % inhibition
CCOC(=O)C1=CC2(CCC1S(=O)(=O)Cc1ccc(F)cc1Cl)O[C@H](C)[C@@H](C)O2 (stereo partly drawn) [Compound 18, ethyl (2R,3R)-8-((2-chloro-4-fluorobenzyl)sulfonyl)-2,3-dimethyl-1,4-dioxaspiro[4.5]dec-6-ene-7-carboxylate] | – | 100 % inhibition
CCOC(=O)C1=CC2(CCC1S(=O)(=O)Cc1cc(F)ccc1Cl)O[C@H](CO)[C@@H](CO)O2 (stereo partly drawn) [Compound 21, ethyl (2R,3R)-8-((2-chloro-5-fluorobenzyl)sulfonyl)-2,3-bis(hydroxymethyl)-1,4-dioxaspiro[4.5]dec-6-ene-7-carboxylate] | – | 100 % inhibition
CCOC(=O)C1=CC2(CCC1S(=O)(=O)Cc1ccc(F)cc1Cl)OCCO2 (stereo not shown) [Compound 22, ethyl 8-((2-chloro-4-fluorobenzyl)sulfonyl)-1,4-dioxaspiro[4.5]dec-6-ene-7-carboxylate] | – | 110 % inhibition
CCOC(=O)C1=CC2(CCC1S(=O)(=O)Cc1ccccc1Cl)O[C@@H](CO)[C@H](CO)O2 (stereo partly drawn) [Compound 23, ethyl (2S,3S)-8-((2-chlorobenzyl)sulfonyl)-2,3-bis(hydroxymethyl)-1,4-dioxaspiro[4.5]dec-6-ene-7-carboxylate] | – | 100 % inhibition
CCOC(=O)C1=CC2(CCC1S(=O)(=O)Cc1c(C)cccc1Cl)O[C@@H](CO)[C@H](CO)O2 (stereo partly drawn) [Compound 26, ethyl (2S,3S)-8-((2-chloro-6-methylbenzyl)sulfonyl)-2,3-bis(hydroxymethyl)-1,4-dioxaspiro[4.5]dec-6-ene-7-carboxylate] | – | 110 % inhibition
CCOC(=O)C1=CC2(CCC1S(=O)(=O)Cc1ccc(F)cc1Cl)OC[C@@H](CNC(=O)OC(C)(C)C)O2 (stereo partly drawn) [Compound 27, ethyl (2R)-2-(((tert-butoxycarbonyl)amino)methyl)-8-((2-chloro-4-fluorobenzyl)sulfonyl)-1,4-dioxaspiro[4.5]dec-6-ene-7-carboxylate] | – | 98 % inhibition
C#CCCCCOC[C@@H]1COC2(C=C(C(=O)OCC)C(S(=O)(=O)Cc3ccc(F)cc3Cl)CC2)O1 (stereo partly drawn) [Compound 28, ethyl (2R)-8-((2-chloro-4-fluorobenzyl)sulfonyl)-2-((hex-5-yn-1-yloxy)methyl)-1,4-dioxaspiro[4.5]dec-6-ene-7-carboxylate] | – | 94 % inhibition
CCOC(=O)C1=CC2(CCC1S(=O)(=O)Cc1ccc(F)cc1Cl)OC[C@H](CNC(=O)OCc1ccccc1)O2 (stereo partly drawn) [Compound 29, ethyl (2S)-2-((((benzyloxy)carbonyl)amino)methyl)-8-((2-chloro-4-fluorobenzyl)sulfonyl)-1,4-dioxaspiro[4.5]dec-6-ene-7-carboxylate] | – | 86 % inhibition
